In patent publication US20070185072A1, “Nitrogeneous polycyclic derivatives useful as chelators of metal ions and their applications” (priority 2003, published 2007) one finds plaque loading increase and plaque loading reduction data, which are given here for three compounds.

For the test, the system named is double transgenic mice over-expressing human APP (V717I) and human PS1 (A242E). The experiment in a line: Amyloid plaque loading (thioflavin S staining of brain sections) in double transgenic mice model of Alzheimer's disease. It is filed as in vivo. Conditions: vs control. Here is the method:
Mice over-expressing human APP with the London mutation (V717I) and human PS1 bearing the A242E mutation (APP and PS1 stand for amyloid protein precursor and preseniline 1, respectively) were used.
Three molecules were evaluated on these double transgenic mice (6-month old): 3-Propyl-Clip-Phen (molecule B in the histogram below), Cyclo-bi-Phen (molecule G) and Clioquinol (molecule W) (C stands for control, only DMSO diluted in water).
The molecules were initially diluted in DMSO in the presence of 2.6 equivalents of HCl and then in water and the animals were treated by i.p. injection with the two Phen derivatives at 5 mg/kg or at 10 mg/kg for Clioquinol, three times per week (monday, Wednesday and friday) during 9 consecutive weeks. 9 animals were treated for each drugs (control also included 9 animals).
This method is used to quantify the “old” plaques.

[1] abbreviates: 5 mg/kg i.p. three times per week for 9 weeks.

Take `c1cnc2c(c1)ccc1cc(OCCCOc3cnc4c(ccc5cccnc54)c3)cnc12` [3-Propyl-Clip-Phen]: under setting [1], the plaque loading increase stood at 16%. Compound `c1nc2c3ccc4cc(cnc42)OCCCOc2cnc4c(ccc5cc(cnc54)OCCCOc1c3)c2` [Cyclo-bi-Phen] returned a plaque loading reduction under setting [1] of 38%. As to `Oc1c(I)cc(Cl)c2cccnc12` [Clioquinol, 5-chloro-7-iodo-8-hydroxyquinoline], under “10 mg/kg i.p. three times per week for 9 weeks”, the plaque loading reduction came to 28%.
